Literature values as cited in US20210386733A1, “LYSINE-SPECIFIC HISTONE DEMETHYLASE INHIBITORS FOR THE TREATMENT OF MYELOPROLIFERATIVE NEOPLASMS” (Imago Biosciences, Inc., priority 2019, published 2021).

Tested on: primary myelofibrosis patients
Details: 50 to 100 mg/day in combination with prednisone; cited from earlier work

For `O=C1CCC(N2C(=O)c3ccccc3C2=O)C(=O)N1` (centres unmarked) [Thalidomide], the “patients with improved anemia and thrombocytopenia” value is listed as “approximately 60%” and the “patients with reduced spleen size” value is listed as “approximately 20%”.
